According to patent US11535629B2, “Dioxoloisoquinolinone derivatives and use thereof” (HANMI PHARMACEUTICAL CO., LTD., priority 2020, dated 2022):
Like-named read-outs stand apart in the source and are kept apart here.

Tests used:
KARPAS-422 cells = assay: Cell growth inhibition test (CTG method); type: cell-based; settings: KARPAS-422 (EZH2^Y641N mutant), culturing for 7 days, read-out: Cell growth inhibitory activity (GI50, nM) KARPAS-422 (EZH2^Y641N mutant)
Protocol: The cultured cell strain was prepared at 1.8×10^4 cells/400 μL and placed in a 48-well plate.

EZH1 = EZH1 (Homo sapiens (Human), UniProt Q92800); assay: EZH1 methyltransferase inhibitory activity (radiometric scintillation proximity assay)
Protocol: The inhibitory activity of the synthesized compounds above against EZH1 or EZH2 methyltransferase was measured. The experiments were consigned to Reaction Biology, and EZH1 or EZH2 activity was measured using a radiometric scintillation proximity assay. […] The buffer solution was comprised of 50 mmol/L Tris-HCl pH 8.0, 50 mmol/L NaCl, 1 mmol/L EDTA, 1 mmoL/L DTT, 1 mmol/L PMSF and 1% DMSO. Trichloroacetic acid was added to end the reaction, and SPA beads coated with PVT streptavidin were added followed by 1 hour reaction at room temperature. A TopCount NXT plate reader was used to measure the methylation value of the substrate peptide. The measured values were converted to percent activity, setting the mean value for wells treated with DMSO as 100% and the background mean value as 0%.

[1] = Homo sapiens, KARPAS-422, 168 h
[2] = read-out: Enzyme inhibitory activity (IC50, nM) EZH1, 2.3 nmol/L EZH1, 90 minutes at room temperature

Chain of EZH1 (Q92800 whole entry): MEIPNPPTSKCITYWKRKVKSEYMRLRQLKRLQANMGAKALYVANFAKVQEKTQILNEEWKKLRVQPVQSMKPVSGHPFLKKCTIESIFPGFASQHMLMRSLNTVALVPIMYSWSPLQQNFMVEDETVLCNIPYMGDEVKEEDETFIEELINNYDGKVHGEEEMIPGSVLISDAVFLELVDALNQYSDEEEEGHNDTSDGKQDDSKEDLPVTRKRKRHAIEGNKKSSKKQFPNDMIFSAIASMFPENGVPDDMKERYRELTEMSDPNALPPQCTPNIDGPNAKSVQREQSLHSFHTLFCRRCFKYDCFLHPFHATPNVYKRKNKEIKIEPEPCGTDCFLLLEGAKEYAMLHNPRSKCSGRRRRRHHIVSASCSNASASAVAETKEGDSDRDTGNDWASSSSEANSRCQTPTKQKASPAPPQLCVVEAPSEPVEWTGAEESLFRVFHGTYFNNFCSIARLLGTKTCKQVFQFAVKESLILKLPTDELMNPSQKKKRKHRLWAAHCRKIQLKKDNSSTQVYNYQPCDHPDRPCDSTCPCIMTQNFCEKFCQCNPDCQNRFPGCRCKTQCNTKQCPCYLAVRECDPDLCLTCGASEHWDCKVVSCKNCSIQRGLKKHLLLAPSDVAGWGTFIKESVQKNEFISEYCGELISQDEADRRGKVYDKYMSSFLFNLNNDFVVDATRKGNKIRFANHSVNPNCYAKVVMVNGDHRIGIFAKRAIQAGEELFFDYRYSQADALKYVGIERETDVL
Chain of EZH1 (O75530 whole entry partner): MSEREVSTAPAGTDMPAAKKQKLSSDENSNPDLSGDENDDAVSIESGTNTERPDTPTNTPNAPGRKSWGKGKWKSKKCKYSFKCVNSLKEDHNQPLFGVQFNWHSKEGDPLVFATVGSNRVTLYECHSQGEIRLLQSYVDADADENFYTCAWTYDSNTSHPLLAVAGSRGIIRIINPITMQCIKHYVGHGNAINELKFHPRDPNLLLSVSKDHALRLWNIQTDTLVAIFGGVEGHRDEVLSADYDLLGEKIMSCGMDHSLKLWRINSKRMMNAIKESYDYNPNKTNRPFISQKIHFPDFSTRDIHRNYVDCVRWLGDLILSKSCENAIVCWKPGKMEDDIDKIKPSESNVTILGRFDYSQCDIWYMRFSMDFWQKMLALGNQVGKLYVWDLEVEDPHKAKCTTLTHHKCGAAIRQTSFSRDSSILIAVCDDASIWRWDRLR
Chain of EZH1 (Q15022 whole entry partner): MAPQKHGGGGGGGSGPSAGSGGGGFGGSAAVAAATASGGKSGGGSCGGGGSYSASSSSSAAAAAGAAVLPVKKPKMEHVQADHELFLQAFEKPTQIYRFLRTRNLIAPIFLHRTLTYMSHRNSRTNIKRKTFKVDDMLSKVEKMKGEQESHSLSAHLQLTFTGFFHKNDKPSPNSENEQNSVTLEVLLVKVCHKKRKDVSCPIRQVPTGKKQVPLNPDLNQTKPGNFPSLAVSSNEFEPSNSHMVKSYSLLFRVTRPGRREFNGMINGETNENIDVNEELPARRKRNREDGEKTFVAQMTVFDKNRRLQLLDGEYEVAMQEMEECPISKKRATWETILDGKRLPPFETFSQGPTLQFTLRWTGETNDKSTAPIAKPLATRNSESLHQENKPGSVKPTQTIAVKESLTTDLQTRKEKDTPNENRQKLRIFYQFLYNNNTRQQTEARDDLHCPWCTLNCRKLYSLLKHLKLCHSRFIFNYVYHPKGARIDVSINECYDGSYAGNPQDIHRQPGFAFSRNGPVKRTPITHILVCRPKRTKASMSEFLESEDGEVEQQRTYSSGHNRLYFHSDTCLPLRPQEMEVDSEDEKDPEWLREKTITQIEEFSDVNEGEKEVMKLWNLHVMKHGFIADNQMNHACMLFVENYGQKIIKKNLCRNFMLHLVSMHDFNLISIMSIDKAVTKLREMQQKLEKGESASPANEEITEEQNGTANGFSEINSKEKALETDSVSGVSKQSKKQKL
Chain of EZH1 (Q09028 whole entry partner): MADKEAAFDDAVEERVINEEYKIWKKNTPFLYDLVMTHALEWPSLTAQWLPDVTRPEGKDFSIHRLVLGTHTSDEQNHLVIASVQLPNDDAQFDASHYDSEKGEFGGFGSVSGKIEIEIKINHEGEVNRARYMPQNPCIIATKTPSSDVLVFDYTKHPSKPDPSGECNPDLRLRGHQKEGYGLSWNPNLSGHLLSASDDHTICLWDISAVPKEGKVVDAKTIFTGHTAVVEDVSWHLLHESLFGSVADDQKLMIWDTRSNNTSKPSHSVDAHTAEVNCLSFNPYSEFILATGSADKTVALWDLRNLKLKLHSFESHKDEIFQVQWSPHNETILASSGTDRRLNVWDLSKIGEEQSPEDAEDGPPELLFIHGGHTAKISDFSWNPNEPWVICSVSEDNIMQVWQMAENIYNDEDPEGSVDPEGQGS
Chain of EZH1 (Q6ZN18 whole entry partner): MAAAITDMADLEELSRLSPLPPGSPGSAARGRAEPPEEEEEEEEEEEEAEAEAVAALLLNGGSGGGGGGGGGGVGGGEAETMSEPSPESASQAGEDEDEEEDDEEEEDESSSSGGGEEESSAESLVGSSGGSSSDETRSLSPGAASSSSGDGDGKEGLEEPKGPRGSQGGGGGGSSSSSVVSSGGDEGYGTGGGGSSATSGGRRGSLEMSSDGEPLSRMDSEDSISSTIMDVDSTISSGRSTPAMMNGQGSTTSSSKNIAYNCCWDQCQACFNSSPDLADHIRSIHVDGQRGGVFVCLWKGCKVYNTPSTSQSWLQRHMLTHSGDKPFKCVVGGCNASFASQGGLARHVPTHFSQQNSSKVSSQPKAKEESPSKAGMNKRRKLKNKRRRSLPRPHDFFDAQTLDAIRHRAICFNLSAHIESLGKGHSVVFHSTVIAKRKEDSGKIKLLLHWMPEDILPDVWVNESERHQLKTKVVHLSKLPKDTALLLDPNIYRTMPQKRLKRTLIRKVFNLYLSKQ

| GI50 (KARPAS-422 cells) | IC50 (EZH1) | GI50 (KARPAS-422 cells; [1]) | IC50 (EZH1; [2]) | Compound |
| --- | --- | --- | --- | --- |
| – | 8.3 to 10 nM | 3.9 to 8.4 nM | – | Cc1cc(C)c(CN2CCc3c(c(C)c4c(c3-c3ccco3)O[C@](C)([C@H]3CC[C@H](N(C)C)CC3)O4)C2=O)c(=O)[nH]1 [Compound 30, (R)-6-((4,6-dimethyl-2-oxo-1,2-dihydropyridin-3-yl)methyl)-2-(trans-4-(dimethylamino)cyclohexyl)-9-(furan-2-yl)-2,4-dimethyl-7,8-dihydro-[1,3]dioxolo[4,5-g]isoquinolin-5(6H)-one] |
| – | – | 3.4 nM | 12 nM | Cc1cc(C)c(CN2CCc3c(c(C)c4c(c3-c3cccs3)O[C@](C)([C@H]3CC[C@H](N(C)C)CC3)O4)C2=O)c(=O)[nH]1 [Compound 32, (R)-6-((4,6-dimethyl-2-oxo-1,2-dihydropyridin-3-yl)methyl)-2-(trans-4-(dimethylamino)cyclohexyl)-2,4-dimethyl-9-(thiophen-2-yl)-7,8-dihydro-[1,3]dioxolo[4,5-g]isoquinolin-5(6H)-one] |
| – | – | 5.5 nM | 20 nM | Cc1cc(C)c(CN2CCc3c(c(C)c4c(c3-c3cccn3C)O[C@](C)([C@H]3CC[C@H](N(C)C)CC3)O4)C2=O)c(=O)[nH]1 [Compound 48, (R)-6-((4,6-dimethyl-2-oxo-1,2-dihydropyridin-3-yl)methyl)-2-(trans-4-(dimethylamino)cyclohexyl)-2,4-dimethyl-9-(1-methyl-1H-pyrrol-2-yl)-7,8-dihydro-[1,3]dioxolo[4,5-g]isoquinolin-5(6H)-one] |
| – | – | 4.9 nM | 22 nM | Cc1cc(C)c(CN2CCc3c(c(C)c4c(c3-c3ccsc3)O[C@](C)([C@H]3CC[C@H](N(C)C)CC3)O4)C2=O)c(=O)[nH]1 [Compound 50, (R)-6-((4,6-dimethyl-2-oxo-1,2-dihydropyridin-3-yl)methyl)-2-(trans-4-(dimethylamino)cyclohexyl)-2,4-dimethyl-9-(thiophen-3-yl)-7,8-dihydro-[1,3]dioxolo[4,5-g]isoquinolin-5(6H)-one] |
| – | – | 5.9 nM | 18 nM | Cc1cc(C)c(CN2CCc3c(c(C)c4c(c3-c3cncs3)O[C@](C)([C@H]3CC[C@H](N(C)C)CC3)O4)C2=O)c(=O)[nH]1 [Compound 52, (R)-6-((4,6-dimethyl-2-oxo-1,2-dihydropyridin-3-yl)methyl)-2-(trans-4-(dimethylamino)cyclohexyl)-2,4-dimethyl-9-(thiazol-5-yl)-7,8-dihydro-[1,3]dioxolo[4,5-g]isoquinolin-5(6H)-one] |

Further lines, the molecule ahead of its results:

| Compound | GI50 (KARPAS-422 cells) | IC50 (EZH1) | GI50 (KARPAS-422 cells; [1]) | IC50 (EZH1; [2]) |
| --- | --- | --- | --- | --- |
| Cc1cc(C)c(CN2CCc3c(Cl)c4c(c(C)c3C2=O)OC(C)(C23CCC(N(C)C)(CC2)CC3)O4)c(=O)[nH]1 (single isomer, unassigned) [Compound 2, 9-chloro-6-((4,6-dimethyl-2-oxo-1,2-dihydropyridin-3-yl)methyl)-2-(4-(dimethylamino)bicyclo[2.2.2]octan-1-yl)-2,4-dimethyl-7,8-dihydro-[1,3]dioxolo[4,5-g]isoquinolin-5(6H)-one] | 4.5 nM | 15 nM | – | – |
| COc1cc(C)[nH]c(=O)c1CN1CCc2c(Cl)c3c(c(C)c2C1=O)OC(C)(C12CCC(N(C)C)(CC1)CC2)O3 (single isomer, unassigned) [Compound 5, 9-chloro-2-(4-(dimethylamino)bicyclo[2.2.2]octan-1-yl)-6-((4-methoxy-6-methyl-2-oxo-1,2-dihydropyridin-3-yl)methyl)-2,4-dimethyl-7,8-dihydro[1,3]dioxolo[4,5-g]isoquinolin-5(6H)-one] | 4.5 nM | 17 nM | – | – |
| CSc1cc(C)[nH]c(=O)c1CN1CCc2c(Cl)c3c(c(C)c2C1=O)OC(C)(C12CCC(N(C)C)(CC1)CC2)O3 (single isomer, unassigned) [Compound 8, 9-chloro-2-(4-(dimethylamino)bicyclo[2.2.2]octan-1-yl)-2,4-dimethyl-6-((6-methyl-4-(methylthio)-2-oxo-1,2-dihydropyridin-3-yl)methyl)-7,8-dihydro[1,3]dioxolo[4,5-g]isoquinolin-5(6H)-one] | 3.9 nM | 167 nM | – | – |
| Cc1cc(C)c(CN2CCc3c(Br)c4c(c(C)c3C2=O)OC(C)(C23CCC(N(C)C)(CC2)CC3)O4)c(=O)[nH]1 (single isomer, unassigned) [Compound 11, 9-bromo-6-((4,6-dimethyl-2-oxo-1,2-dihydropyridin-3-yl)methyl)-2-(4-(dimethylamino)bicyclo[2.2.2]octan-1-yl)-2,4-dimethyl-7,8-dihydro-[1,3]dioxolo[4,5-g]isoquinolin-5(6H)-one] | 3.8 to 12 nM | 15 nM | – | – |
| Cc1cc(C)c(CN2CCc3c(C)c4c(c(C)c3C2=O)OC(C)(C23CCC(N(C)C)(CC2)CC3)O4)c(=O)[nH]1 (single isomer, unassigned) [Compound 23, 6-((4,6-dimethyl-2-oxo-1,2-dihydropyridin-3-yl)methyl)-2-(4-(dimethylamino)bicyclo[2.2.2]octan-1-yl)-2,4,9-trimethyl-7,8-dihydro-[1,3]dioxolo[4,5-g]isoquinolin-5(6H)-one] | – | 12 nM | 3.7 to 6.8 nM | – |
| Cc1cc(C)c(CN2CCc3c(c(C)c4c(c3-c3ccncc3)O[C@](C)([C@H]3CC[C@H](N(C)C)CC3)O4)C2=O)c(=O)[nH]1 [Compound 34, (R)-6-((4,6-dimethyl-2-oxo-1,2-dihydropyridin-3-yl)methyl)-2-(trans-4-(dimethylamino)cyclohexyl)-2,4-dimethyl-9-(pyridin-4-yl)-7,8-dihydro-[1,3]dioxolo[4,5-g]isoquinolin-5(6H)-one] | – | – | 3.7 nM | 32 nM |
| Cc1cc(C)c(CN2CCc3c(c(C)c4c(c3-c3ccc(C)o3)O[C@](C)([C@H]3CC[C@H](N(C)C)CC3)O4)C2=O)c(=O)[nH]1 [Compound 40, (R)-6-((4,6-dimethyl-2-oxo-1,2-dihydropyridin-3-yl)methyl)-2-(trans-4-(dimethylamino)cyclohexyl)-2,4-dimethyl-9-(5-methylfuran-2-yl)-7,8-dihydro-[1,3]dioxolo[4,5-g]isoquinolin-5(6H)-one] | – | – | 4.4 to 5.5 nM | 22 nM |
| Cc1cc(C)c(CN2CCc3c(c(C)c4c(c3-c3cccnc3)O[C@](C)([C@H]3CC[C@H](N(C)C)CC3)O4)C2=O)c(=O)[nH]1 [Compound 44, (R)-6-((4,6-dimethyl-2-oxo-1,2-dihydropyridin-3-yl)methyl)-2-(trans-4-(dimethylamino)cyclohexyl)-2,4-dimethyl-9-(pyridin-3-yl)-7,8-dihydro-[1,3]dioxolo[4,5-g]isoquinolin-5(6H)-one] | – | – | 5.1 nM | 14 nM |
